Measurements reported in patent publication US20230144459A1, “SHEDDING BLOCKING AGENTS WITH INCREASED STABILITY” (BIOND BIOLOGICS LTD., priority 2020, published 2023).

Target: T1, human CD28 (shedding of sCD28 from cells) (Homo sapiens, UniProt P10747)
T1 construct: endogenous in cells; host or cells: CD4 T cells and PBMCs from fresh blood of healthy donors
Assay: Inhibition of CD28 shedding in stimulated lymphocytes (CD4 with PHA and IL-2 or PBMCs with SEB)
Type: cell-based
Conditions: percent of soluble CD28 reduction from basal stimulation; constructs and isotype 3 μM, MMPi TMI-1 1 μM

T1 sequence (P10747 19-220): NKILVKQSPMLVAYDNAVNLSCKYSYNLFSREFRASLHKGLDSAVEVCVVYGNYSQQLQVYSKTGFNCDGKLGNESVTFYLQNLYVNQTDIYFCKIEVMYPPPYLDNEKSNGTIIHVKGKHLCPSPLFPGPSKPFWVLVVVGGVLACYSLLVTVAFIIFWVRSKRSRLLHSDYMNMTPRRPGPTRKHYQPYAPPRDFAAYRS

CC#CCOc1ccc(S(=O)(=O)N2CCSC(C)(C)[C@@H]2C(=O)NO)cc1 [MMPi, TMI-1, reference compound]
Inhibition (%) of CD28 shedding: 60.5%
